Patent publication US10376520B2, “Methods for the treatment of cardiovascular disorders” (Galapagos NV, priority 2015, dated 2019)

Experiments:
Assay type in all cases: in vivo, human
RA patients [1] = experiment: Plasma CETP concentration (ELISA), Study 4; details: for CETP level, 4 weeks CFB: 4 weeks change from baseline
Protocol: (§1) Randomized double-blind, placebo-controlled add on study in subjects with active RA who have an inadequate response to MTX monotherapy, in combination with methotrexate, administered for 4 weeks in the treatment of subjects with active rheumatoid arthritis who have an inadequate response to methotrexate alone.
(§2) Compound 1 (dosed as a [Compound 1:HCl:3H2O]) capsules administered orally in 30 mg, 75 mg, 150 mg, or 300 mg doses per day for 4 weeks.
Plasma CETP concentration was determined using a commercial available ELISA kit from Alpco (26-G Keewaydin Drive, Salem, N.H. 03079 USA) according to manufacturer's instruction. Catalogue number 47-CETH-E01, lot number used: 812RCL.

RA patients [2] = experiment: ApoA-I level (Selectra autoanalyzer), Study 4; details: for ApoA-I level, 4 weeks CFB: 4 weeks change from baseline
Protocol: as §1, §2
ApoAI, and ApoB were measured on the Selectra autoanalyzer (Sopachem BV, 44-RI Straat 33, 4051 AP Ochten, The Netherlands). All assays were commercially available from DiaSys Diagnostic Systems GmbH, Alte Strasse 9, 65558 Holzheim, Germany.

RA patients [3] = experiment: Disease Activity Score 28 (DAS28(CRP)), Study 2
Text: As used herein, the term ‘DAS28(CRP)’ refers to a clinical scoring ranging from 2.0 to 10.0 to measure the disease status at a given point in time, and thereby follow the progress and improvement of rheumatoid arthritis in a patient, and includes a 28 tender and swollen joint count, CRP measurement from blood analysis, and a general health assessment on a visual analog scale. A DAS28(CRP) value below 2.6 is indicative of remission, A DAS28(CRP) between 2.6 and 3.2 is indicative of low disease activity, between 3.2 and 5.1 is indicative of moderate disease activity, whereas a DAS28(CRP) above 5.1 is linked to high disease activity. (Wells et al., 2008)
Double-blind, placebo-controlled, monotherapy study in subjects with moderately to severely active RA who have an inadequate response to methotrexate (MTX) (oral or parenteral).
Twelve weeks of treatment with Compound 1 (dosed as a [Compound 1:HCl:3H2O]) at 50 mg, 100 mg, or 200 mg q.d.; or placebo. At Week 12, all subjects on placebo and the subjects on the 50 mg dose who have not achieved 20% improvement in swollen joint count (SJC66) and tender joint count (TJC68) will be assigned to 100 mg q.d. in a blinded fashion and will continue treatment until Week 24. Subjects in the other groups will maintain their randomized treatment until Week 24.
The (DAS28(CRP)) is a system developed and validated by the European League Against Rheumatism (EULAR) to measure the progress and improvement of rheumatoid arthritis and has been extensively validated (Wells et al., 2008). The DAS28(CRP) scoring includes a 28 tender and swollen joint count, CRP measurement from blood analysis, and a general health assessment on a visual analog scale (Fransen et al., 2003).
DAS28(CRP) values range from 2.0 to 10.0, and more particularly reflect the following status: • Remission: DAS28(CRP)≤2.6 • Low Disease activity: 2.6<DAS28(CRP)≤3.2 • Moderate Disease Activity: 3.2<DAS28(CRP)≤5.1 • High Disease Activity: DAS28(CRP)>5.1
In practice, the DAS28(CRP) measurement involves the evaluation 28 different joints including in the measurement (proximal interphalangeal joints (10 joints), metacarpophalangeal joints (10), wrists (2), elbows (2), shoulders (2), and knees (2)). When looking at these joints, both the number of joints with tenderness upon touching and swelling are counted.
Firstly, the patient is asked to make a vertical mark on a 100 mm Visual Analog Scale (VAS) corresponding to their general health or global disease activity. Using an electronic touchscreen, the mark is measured from the left-hand side in mm to obtain the VAS value, which is used in the formula below.
Secondly, a swollen and tender joint examination is then performed on the patient. The swollen and tender joints are recorded. From this examination are obtained the total amount of swollen joints (SJC) and the total amount of tender joints (TJC), which are used in the formula below.
Thirdly, C-reactive protein (CRP) levels (in mg/dL) are measured.
Finally, the values obtained above (VAS, JTC28, SJC28, and CRP) are computed into the following Formula to obtain the DAS28(CRP) score.
The number of subjects (N) provided in each groups corresponds to the number of patients starting the study in each group, and the DAS28 (CRP) data reported below corresponds to the responding patients continuing for the entire 24 weeks on their initial treatment course.

O=C(Nc1nc2cccc(-c3ccc(CN4CCS(=O)(=O)CC4)cc3)n2n1)C1CC1 [Compound 1, cyclopropanecarboxylic acid {5-[4-(1,1-dioxo-thiomorpholin-4-ylmethyl)-phenyl]-[1,2,4]triazolo[1,5-a]pyridin-2yl}-amide]
CETP level, 4 weeks CFB (RA patients [1]; 30 mg q.d.): 2.4%
CETP level, Baseline (RA patients [1]; 30 mg q.d.): 3.2 µg/mL
CETP level, week 4 (RA patients [1]; 30 mg q.d.): 3.2 µg/mL
CETP level, 4 weeks CFB (RA patients [1]; 75 mg q.d.): −2.8%
CETP level, Baseline (RA patients [1]; 75 mg q.d.): 2.8 µg/mL
CETP level, week 4 (RA patients [1]; 75 mg q.d.): 2.7 µg/mL
CETP level, 4 weeks CFB (RA patients [1]; 150 mg q.d.): −11.4%
CETP level, Baseline (RA patients [1]; 150 mg q.d.): 2.8 µg/mL
CETP level, week 4 (RA patients [1]; 150 mg q.d.): 2.3 µg/mL
CETP level, 4 weeks CFB (RA patients [1]; 300 mg q.d.): −10.2%
CETP level, Baseline (RA patients [1]; 300 mg q.d.): 2.5 µg/mL
CETP level, week 4 (RA patients [1]; 300 mg q.d.): 2.2 µg/mL
ApoA-I level, 4 weeks CFB (RA patients [2]; 30 mg q.d.): 5.2%
ApoA-I level, Baseline (RA patients [2]; 30 mg q.d.): 148 mg/dL
ApoA-I level, week 4 (RA patients [2]; 30 mg q.d.): 155 mg/dL
ApoA-I level, 4 weeks CFB (RA patients [2]; 75 mg q.d.): 9.8%
ApoA-I level, Baseline (RA patients [2]; 75 mg q.d.): 142 mg/dL
ApoA-I level, week 4 (RA patients [2]; 75 mg q.d.): 156 mg/dL
ApoA-I level, 4 weeks CFB (RA patients [2]; 150 mg q.d.): 5.5%
ApoA-I level, Baseline (RA patients [2]; 150 mg q.d.): 140 mg/dL
ApoA-I level, week 4 (RA patients [2]; 150 mg q.d.): 147 mg/dL
ApoA-I level, 4 weeks CFB (RA patients [2]; 300 mg q.d.): 27.9%
ApoA-I level, Baseline (RA patients [2]; 300 mg q.d.): 143 mg/dL
ApoA-I level, week 4 (RA patients [2]; 300 mg q.d.): 179 mg/dL
DAS28(CRP) mean CFB (LOCF) - over 24 weeks (RA patients [3]; 50 mg q.d., Week 16): −1.88
DAS28(CRP) mean CFB (LOCF) - over 12 weeks (RA patients [3]; 50 mg q.d., week 1): −0.70
DAS28(CRP) mean CFB (LOCF) - over 24 weeks (RA patients [3]; 50 mg q.d., week 1): −0.75
DAS28(CRP) mean CFB (LOCF) - over 12 weeks (RA patients [3]; 50 mg q.d., week 2): −0.97
DAS28(CRP) mean CFB (LOCF) - over 12 weeks (RA patients [3]; 50 mg q.d., week 4): −1.37
DAS28(CRP) mean CFB (LOCF) - over 24 weeks (RA patients [3]; 50 mg q.d., week 12): −1.75
% patients reaching low disease activity and/or remission at week 24 (LOCF) (RA patients [3]; 100 mg q.d.): 50%
DAS28(CRP) mean CFB (LOCF) - over 12 weeks (RA patients [3]; 100 mg q.d., week 1): −0.88
DAS28(CRP) mean CFB (LOCF) - over 24 weeks (RA patients [3]; 100 mg q.d., week 1): −0.87
DAS28(CRP) mean CFB (LOCF) - over 12 weeks (RA patients [3]; 100 mg q.d., week 4): −1.50
DAS28(CRP) mean CFB (LOCF) - over 24 weeks (RA patients [3]; 100 mg q.d., week 12): −2.04
DAS28(CRP) mean CFB (LOCF) - over 24 weeks (RA patients [3]; 100 mg q.d., week 16): −2.39
DAS28(CRP) mean CFB (LOCF) - over 24 weeks (RA patients [3]; 200 mg q.d., week 8): −2.23
DAS28(CRP) mean CFB (LOCF) - over 24 weeks (RA patients [3]; 200 mg q.d., week 20): −2.55
